According to patent US7625948B2, “Ester compound and medicinal use thereof” (Japan Tobacco Inc., priority 2002, dated 2009):

Assays:
HepG2 cells = test: Test Example 2: inhibition of apolipoprotein B secretion from HepG2 cells, ELISA (also used for metabolites in Test Example 8); assay type: cell-based; settings: Homo sapiens, 24 hours, apo B in supernatant by ELISA, read-out: Test Example 2 Inhibition of apo B secretion IC50
Method in brief: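 HepG2 cells cultured 24 h, then exposed 24 h to compounds or metabolites in medium with 0.5% DMSO. Secreted apo B in supernatant quantified by sandwich ELISA (HRP, ABTS, 405 nm) against purified human apo B standard; % inhibition vs DMSO group, IC50 derived.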

Syrian hamsters [1] = test: Test Example 3: olive oil-loading test (inhibition of fat absorption, plasma TG); assay type: in vivo; settings: Mesocricetus auratus, po, plasma TG 4 hours after olive oil, read-out: Test Example 3 Inhibition of fat absorption after olive oil-loading in Hamster Inhibition rate (%); for inhibition in vivo at 3 mg/kg: 3 mg/kg p.o.
Procedure: Syrian hamsters (9-11 weeks of age) under non-fasted conditions were used in the test. Blood was collected previously from orbital venous plexus, and a sample was suspended in 0.5% methyl cellulose (vehicle) and the suspension was forced to be administered orally to the hamsters at a dose of 0.3, 1, 3 or 10 mg/2 mL/kg. Only vehicle in the same volume was administered to the control group. Olive oil (2 mL/kg) was forced to be administered orally 30 minutes after the administration of the sample, and blood was collected from orbital venous plexus 4 hours later. Plasma was recovered from the blood, and the amount of triglyceride (TG) in the plasma was determined by automatic analyzer (Hitachi Co.). The data was expressed in terms of ΔTG(mg/dL)=the value at 4th hr minus the value before administration. Inhibition rate (%) was calculated from the data obtained on the basis of the following equation.
Inhibition rate (%)=100×(1 minus ΔTG of sample group/ΔTG of control group).

Syrian hamsters [2] = test: as above; assay type: in vivo; settings: Mesocricetus auratus, po; 100 mg/kg p.o.; plasma TG 4 hours after olive oil; read-out: Test Example 3 Inhibition of fat absorption after olive oil-loading in Hamster Inhibition rate (%)
[3] = molecular target: T1, Microsomal triglyceride transfer protein (MTP) from bovine liver (Bos taurus, UniProt P55156); test: Test Example 1: inhibition of interliposomal triglyceride (TG) transfer activity by MTP (also used for metabolites in Test Example 8); assay type: biochemical; settings: MTP-mediated 14C-triolein transfer between liposomes, 37° C., one hour; read-out: Test Example 1 MTP inhibition IC50
T1 construct: from tissue; host or cells: bovine liver
T1 sequence (P55156 12-887): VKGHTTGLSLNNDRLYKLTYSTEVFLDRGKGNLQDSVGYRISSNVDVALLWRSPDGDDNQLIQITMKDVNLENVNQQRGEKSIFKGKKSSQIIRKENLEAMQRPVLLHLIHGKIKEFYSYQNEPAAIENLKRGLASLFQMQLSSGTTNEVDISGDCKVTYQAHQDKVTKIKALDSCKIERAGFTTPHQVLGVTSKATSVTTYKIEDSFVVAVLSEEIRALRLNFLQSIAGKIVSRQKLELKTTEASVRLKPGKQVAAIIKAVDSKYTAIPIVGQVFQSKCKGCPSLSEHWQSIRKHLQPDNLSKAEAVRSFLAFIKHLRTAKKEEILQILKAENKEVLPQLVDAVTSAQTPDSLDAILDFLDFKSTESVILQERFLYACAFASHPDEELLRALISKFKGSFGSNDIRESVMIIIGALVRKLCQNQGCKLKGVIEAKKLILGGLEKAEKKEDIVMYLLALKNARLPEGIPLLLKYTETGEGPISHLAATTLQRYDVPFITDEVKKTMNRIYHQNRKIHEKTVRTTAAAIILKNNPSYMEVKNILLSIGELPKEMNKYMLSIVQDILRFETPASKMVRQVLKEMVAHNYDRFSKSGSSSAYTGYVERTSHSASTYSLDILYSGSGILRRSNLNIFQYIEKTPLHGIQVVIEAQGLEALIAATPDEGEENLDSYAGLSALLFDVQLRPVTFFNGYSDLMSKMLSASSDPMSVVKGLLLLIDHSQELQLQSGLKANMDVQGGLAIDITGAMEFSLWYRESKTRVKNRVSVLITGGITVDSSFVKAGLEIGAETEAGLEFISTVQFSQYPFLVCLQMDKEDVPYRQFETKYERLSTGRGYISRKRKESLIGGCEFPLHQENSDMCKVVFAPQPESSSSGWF
T1 sequence (P05307 21-510 partner): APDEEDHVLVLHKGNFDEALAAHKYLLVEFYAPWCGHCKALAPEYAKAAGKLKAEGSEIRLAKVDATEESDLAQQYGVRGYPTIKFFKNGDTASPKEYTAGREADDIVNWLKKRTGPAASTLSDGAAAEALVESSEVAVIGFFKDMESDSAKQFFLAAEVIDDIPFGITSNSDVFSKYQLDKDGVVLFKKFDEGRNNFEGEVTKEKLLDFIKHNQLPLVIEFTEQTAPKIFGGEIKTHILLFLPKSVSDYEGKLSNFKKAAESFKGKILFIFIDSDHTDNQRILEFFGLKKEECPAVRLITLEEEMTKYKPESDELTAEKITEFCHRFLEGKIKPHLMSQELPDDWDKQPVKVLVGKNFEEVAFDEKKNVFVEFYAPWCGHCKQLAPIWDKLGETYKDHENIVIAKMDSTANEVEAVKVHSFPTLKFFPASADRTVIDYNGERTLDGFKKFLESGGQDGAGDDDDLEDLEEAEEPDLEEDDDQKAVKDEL
Method in brief: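 Partially purified bovine liver MTP (DEAE chromatography) incubated 1 h at 37 °C, pH 7.4, with ^14C-triolein-labelled donor SUVs and unlabelled acceptor SUVs plus compound in DMSO. Acceptor radioactivity, blank-corrected, gave % inhibition versus DMSO; IC50 derived. Metabolites tested likewise.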

Japanese white rabbits = test: Test Example 5: combination use test in cholesterol-loaded rabbit model (plasma cholesterol); assay type: in vivo; settings: 1 mg/kg in high cholesterol diet, from grouping to the 4th day
Procedure: Japanese white rabbits (male, 19 weeks of age, JW, purchased from Kitayama Labes Co., Ltd.) were fed previously in such a way that they were fed a high cholesterol diet (0.3% cholesterol+3% peanut oil-added RC-4, Product of Oriental Yeast Co., Ltd.) of 70 g/day under limited feeding for one day. The rabbits thus fed were used as a cholesterol-loaded rabbit model, and the grouping of such model was carried out in such a way that there might be no variation in the amount of plasma cholesterol among each group (five rabbits/group). […] The rabbits were fed 70 g of each diet every morning. Blood was collected from auricular artery 6 hours after the feeding on the 4th day of the administration, and cholesterol level in plasma was assayed. In the table, increased amount of plasma cholesterol during from the time of grouping to the 4th day was shown.

SMILES	IC50 (HepG2 cells)	inhibition in vivo at 3 mg/kg (Syrian hamsters [1])	also measured
CCNC(=O)C(COC(=O)Cc1ccc(NC(=O)c2ccccc2-c2ccc(C(F)(F)F)cc2)c(C(=O)N(C)CC)c1)(C(=O)NCC)c1ccccc1 [Example 2-14]	1.2 nM	80%	–
CCNC(=O)C(COC(=O)Cc1ccc(NC(=O)c2ccccc2-c2ccc(C(F)(F)F)cc2)c(C(=O)OCC)c1)(C(=O)NCC)c1ccccc1 [Example 9-10]	2.3 nM	54%	–
CCCNC(=O)C(CCOC(=O)Cc1cccc(NC(=O)c2ccccc2-c2ccc(C(F)(F)F)cc2)c1C)(C(=O)NCCC)c1ccccc1 [Example 5-11]	5.1 nM	–	inhibition in vivo at 100 mg/kg (Syrian hamsters [2]): 64%; IC50 [3]: 1.3 nM
CCCNC(=O)C(COC(=O)Cc1ccc(NC(=O)c2ccccc2-c2ccc(C(F)(F)F)cc2)c(C)c1)(C(=O)NCCC)c1ccccc1 [Example 1-72]	2.7 nM	–	inhibition in vivo at 100 mg/kg (Syrian hamsters [2]): 54%; IC50 [3]: 0.44 nM
CCCN(C)C(=O)c1cc(CC(=O)OCC(C(=O)OCC)(C(=O)OCC)c2ccccc2)ccc1NC(=O)c1ccccc1-c1ccc(C(F)(F)F)cc1 [Example 2-18]	0.69 nM	58%	–
CCC(=O)N[C@H](COC(=O)Cc1ccc(NC(=O)c2ccccc2-c2ccc(C(F)(F)F)cc2)c(C(=O)N(C)C)c1)c1ccccc1 [Example 2-25]	6.3 nM	55%	–
CCC(C)(C)C(=O)O[C@H]1C[C@@H](C)C=C2C=C[C@H](C)[C@H](CC[C@@H]3C[C@@H](O)CC(=O)O3)[C@H]21 [Simvastatin, simvastatin, reference compound]	–	–	Increased amount of total cholesterol (Japanese white rabbits): 48.6 mg/dL
CCNC(=O)C(COC(=O)Cc1ccc(NC(=O)c2ccccc2-c2ccc(C(F)(F)F)cc2)c(C(=O)N(CC)CC)c1)(C(=O)NCC)c1ccccc1 [Example 2-8]	0.99 nM	89%	–
CCNC(=O)C(COC(=O)Cc1ccc(NC(=O)c2ccccc2-c2ccc(C(F)(F)F)cc2)c(C(=O)OC)c1)(C(=O)NCC)c1ccccc1 [Example 9-13]	0.53 nM	70%	–
CCOC(=O)C(COC(=O)Cc1ccc(NC(=O)c2ccccc2-c2ccc(C(F)(F)F)cc2)c(C(=O)N(C)CC)c1)(C(=O)OCC)c1ccccc1 [Example 2-13]	0.74 nM	70%	–
CCNC(=O)C(CCOC(=O)Cc1ccc(NC(=O)c2ccccc2-c2ccc(C(F)(F)F)cc2)c(OC(C)C)c1)(C(=O)NCC)c1ccccc1 [Example 3-11]	0.36 nM	75%	–
CCCNC(=O)C(COC(=O)Cc1ccc(NC(=O)c2ccccc2-c2ccc(C(F)(F)F)cc2)c(OC)c1)(C(=O)NCCC)c1ccccc1 [Example 3-5]	2.2 nM	–	inhibition in vivo at 10 mg/kg (Syrian hamsters [1]; 10 mg/kg p.o.): 80%
